{"source": "patent US6316194A", "about": "“Methods and kits for discovery of RNA-binding antimicrobials” (Ribotargets, priority 1999, dated 2001)", "test_system": "DABCYL-A site RNA (25 nucleotide model of the 16S rRNA A site, SEQ ID No. 1)", "assay": "Competitive inhibition of paramomycin-TAMRA binding to DABCYL-A site RNA by unlabelled antibiotic (FRET, 96-well plate reader)", "settings": "25 nM paramomycin-TAMRA", "procedure": "(§1) Binding of paramomycin-TAMRA to A site RNA was measured in a fluorescent plate reader. Measurements were made in a 96-well plate reader (Wallac victor) with a fixed wavelength of 544 nm and emission at 590 nm. I0 was determined by an initial measurement of a 95 μL solution of 25 nM paramomycin-TAMRA in the presence of 50 mM Tris-HCl pH7.5, 80 mM KCl, 0.1% DMSO 0.00007% Triton X-100 and 0.5 ug/mL BSA presence of 10 μM Neomycin. I (the final measurement) was then measured following the addition of 5 μL of a 20×DABCYL-A site RNA stock solution (corresponding to the amounts shown in the figure).\nas §1, with “of 15” for “of 10”, “in FIG. 9). […]” for “in the figure).”"}
{"compound": "Neomycin", "values": [{"measurement": "Inhibition of paramomycin-TAMRA to A site binding", "setting": "10 μM Neomycin", "result": "a reduction in fluorescence in the presence of the neomycin competitor was observed"}]}
{"compound": "NC[C@@H]1O[C@H](O[C@H]2[C@@H](O)[C@H](O[C@@H]3[C@@H](O)[C@H](N)C[C@H](N)[C@H]3O[C@H]3O[C@H](CO)[C@@H](O)[C@H](O)[C@H]3N)O[C@@H]2CO)[C@H](N)[C@@H](O)[C@@H]1O", "note": "[paramomycin]", "values": [{"measurement": "Inhibition of paramomycin-TAMRA to A site binding", "setting": "15 μM Paramomycin (heading)", "result": "competitive inhibitor"}]}
